Results on 2 compounds are retold here after patent US20250110133A1, “METHOD AND KIT FOR PREDICTING DRUG EFFICACY OF LUNG CANCER TREATMENT AND METHOD FOR TREATING LUNG CANCER” (National Health Research Institutes, priority 2023, published 2025).

pIC50: −log10 of the molar value. “Also recorded” adds a separate entry of the source. Where two headings read alike, the source gives them in different places.

In experiment [1] the test system is PC9 cells. In words: Colony formation assay for gefitinib sensitivity. Type of experiment: cell-based, human. The conditions noted are these: 10-day treatment. The procedure:
Data are presented as mean±standard error of mean, n=3. Differences between shLDOC1 and shCtrl at each indicated concentration are analyzed using Student's t test; * p<0.05 and ** p<0.01.

Experiment [2] relates to PC9 cells.
Protocol: (§1) Cells were seeded in 96-well cell culture plates and treated the next day with the indicated concentrations of indicated EGFR-TKI. After 3 days, cell numbers were determined with MTT assay.
(§2) All cells are cultured in media containing 10% FBS (Gibco), 1% penicillin (Thermo Fisher, Waltham, MA, USA), and 1% streptomycin (Thermo Fisher); the cells are incubated at 37° C. in a humidified chamber with 5% CO2.
(§3) Cells are seeded at a density of 5×10^3 per well in a 96-well plate. […] An appropriate amount of DMSO is also added to the control cells. After 72 h of treatment, the cells are incubated with a solution of MTT (3-(4,5-dimethylthiazol-2-yl)-2,5-diphenyltetrazolium bromide) (Sigma-Aldrich) for 4 h at 37° C. Subsequently, the medium is aspirated, and 100 μL DMSO is added to solubilize the formazan. Colored formazan converted from MTT using viable cells is measured at 570 nm with a microplate reader (BioRad). Experiments are performed in triplicate. IC50 values are determined using the scientific and statistical software GraphPad Prism 10.0.0.
The subject of experiment [3] is HCC827 cells. In words: cells. To be noted: Homo sapiens, HCC827, 72 h, read-out: half-maximal inhibitory concentration (IC50).
Protocol: (§4) The HCC827 cell line is provided by Dr. Yi-Rong Chen from the Institute of Molecular and Genomic Medicine, National Health Research Institutes, Taiwan. […] PC9 and HCC827 cells are maintained in RPMI1640 (Cytiva). […] All cells are cultured in media containing 10% FBS (Gibco), 1% penicillin (Thermo Fisher, Waltham, MA, USA), and 1% streptomycin (Thermo Fisher); the cells are incubated at 37° C. in a humidified chamber with 5% CO2. […] The cells are checked for Mycoplasma (BioSmart, Seoul, Republic of Korea) upon thawing, and throughout the experimental period they consistently tested negative for Mycoplasma.
as §3
Experiment [4] relates to PC9 cells. In words: cells. The conditions noted are these: Homo sapiens, PC-9, 72 h, read-out: half-maximal inhibitory concentration (IC50).
Protocol: as §1, §2, §3
Experiment [5] relates to HCC827 cells. To be noted: read-out: half-maximal inhibitory concentration (IC50).
Protocol: as §4, §3

With `COc1cc2ncnc(Nc3ccc(F)c(Cl)c3)c2cc1OCCCN1CCOCC1` [gefitinib], the “colony formation under drug treatment” value with PC9 cells [1] (LDOC1-depleted (shLDOC1) PC9 cells) is “increased the number of cell colonies; also recorded: survive and form colonies”; in the experiment on PC9 cells [1] (PC9-shCtrl cells) it was “no colonies”.

Consider `C=CC(=O)Nc1cc(Nc2nccc(-c3cn(C)c4ccccc34)n2)c(OC)cc1N(C)CCN(C)C` [osimertinib], for which the “IC50 / inhibitory effect in shLDOC1 cells compared with shCtrl cells” value in the experiment with PC9 cells [2] was “almost the same inhibitory effect”. Further, the pIC50 in the experiment on HCC827 cells [3] is 5.74; in the experiment with PC9 cells [4], 6.05; in the experiment on HCC827 cells [5] it was 5.64.
